Values quoted from earlier work in patent EP3819377A1, “CIRCULAR RNA AND USES THEREOF FOR […]-BINDING PROTEINS” (Justus-Liebig-Universität Gießen, priority 2019, dated 2021).

Conditions: cationic lipid with a tertiary amine group; WO 2012/031046 A2

CCCCC/C=C\C/C=C\CCCCCCCCOCC(CN(C)C)OCCCCCCCC/C=C\C/C=C\CCCCC (stereo not shown) [DLinDMA, 1,2-dilinoleyloxy-N,N-dimethyl-3-aminopropane]
pKa: 5.8
